In ChEMBL document CHEMBL4052769, “Synthesis and biological evaluation of novel 1,2,3-triazole derivatives as anti-tubercular agents” (Bioorg Med Chem Lett, 2017) one finds CC50, Selectivity Index and MIC data, which are given here for 19 compounds.

≈ marks a conversion by molar mass, not a printed value. Some results are limits rather than exact numbers.

Data set [1] in a line: Cytotoxicity against Swiss mouse BMDM assessed as reduction in cell viability after 24 hrs by MTS assay. The format is cell-based. Particulars: bone marrow-derived macrophages (BMDM). On the technique in general: Tetrazolium assays rely on reduction of a dye to a coloured formazan, in cell work by metabolically active cells.
Data set [2] can be described thus: Selectivity index, ratio of CC50 for Swiss mouse BMDM to MIC for Mycobacterium tuberculosis H37Ra ATCC 25177.
Data set [3] concerns Mycobacterium tuberculosis. The data set is described as follows: Antitubercular activity against Mycobacterium tuberculosis H37Ra ATCC 25177 after 4 weeks by Agar-based proportion Assay. It counts as functional. Conditions: H37Ra ATCC 25177, 672 h.

In general, CC50 refers to the concentration at which the toxic effect on the cells reaches its halfway point. What is called MIC is the smallest concentration in the dilution series that meets the test's criterion for growth inhibition. A lower MIC goes with greater potency. For `CC[C@@H](CO)NCCN[C@@H](CC)CO` [ETHAMBUTOL], in data set [1], the CC50 at 24 h was 100 µg/mL (≈ 489 µM). Moreover, the Selectivity Index in data set [2] came to 50. Further, the lowest concentration to inhibit growth in data set [3] (MIC) was 2 µg/mL (≈ 9.79 µM).
As for `N#Cc1ccc(-n2cc(COc3ccc(-c4ccccc4)cc3)nn2)cc1`, in data set [3], the minimal inhibitory concentration (MIC) was more than 25 µg/mL.
The compound `COc1ccc(-n2cc(COc3ccc(-c4ccccc4)cc3)nn2)cc1` displayed a minimal inhibitory concentration (MIC) in data set [3] of more than 25 µg/mL.
As to `Fc1ccc(-n2cc(COc3ccc(-c4ccccc4)cc3)nn2)cc1`, in data set [3], the minimal inhibitory concentration (MIC) is more than 25 µg/mL.
For the compound `CCCCCCCCn1cc(COc2ccc(-c3ccccc3)cc2)nn1`, in data set [3], the minimal inhibitory concentration (MIC) was more than 25 µg/mL.
As to `Fc1ccc(-n2cc(COc3ccc(-c4ccccc4)cc3)nn2)cc1F`, the cytotoxic concentration (CC50) at 24 h in data set [1] is 100 µg/mL (≈ 275 µM). Besides, the Selectivity Index in data set [2] stood at 32. In data set [3], this compound showed an MIC of 3.12 µg/mL (≈ 8.59 µM).
The compound `O=[N+]([O-])c1ccc(Cn2cc(COc3ccc(-c4ccccc4)cc3)nn2)cc1` came in with a minimal inhibitory concentration (MIC) in data set [3] of more than 25 µg/mL.
Turning to `Fc1ccc(-n2cc(COc3ccc(-c4ccccc4)cc3)nn2)cc1Cl`, in data set [1], the CC50 at 24 h came to 100 µg/mL (≈ 263 µM). Besides, the Selectivity Index in data set [2] stood at 64.1. Besides, the lowest concentration to inhibit growth in data set [3] (MIC) was 1.56 µg/mL (≈ 4.11 µM).
For `CC(=O)OCCn1cc(COc2ccc(-c3ccccc3)cc2)nn1`, in that order: 100 µg/mL (≈ 296 µM), 64.1 and 1.56 µg/mL (≈ 4.62 µM).
In data set [3], `Brc1ccc(-n2cc(COc3ccc(-c4ccccc4)cc3)nn2)cc1` showed a minimum inhibitory concentration (MIC) of more than 25 µg/mL.
Still for that read-out and setting: the figure for `c1ccc(CCn2cc(COc3ccc(-c4ccccc4)cc3)nn2)cc1` is more than 25 µg/mL.
Take `FC(F)(F)c1ccc(-n2cc(COc3ccc(-c4ccccc4)cc3)nn2)cc1`: the CC50 at 24 h in data set [1] came out at 100 µg/mL (≈ 253 µM). Further, the Selectivity Index in data set [2] turned out to be 32. Besides, the lowest concentration to inhibit growth in data set [3] (MIC) was 3.12 µg/mL (≈ 7.89 µM).
The compound `Clc1ccc(-n2cc(COc3ccc(-c4ccccc4)cc3)nn2)cc1` returned a minimum inhibitory concentration (MIC) in data set [3] of more than 25 µg/mL.
For the compound `FC(F)Oc1ccc(-n2cc(COc3ccc(-c4ccccc4)cc3)nn2)cc1`, the CC50 at 24 h in data set [1] was determined as 100 µg/mL (≈ 254 µM). The same compound displayed an MIC in data set [3] of 1.56 µg/mL (≈ 3.97 µM).
As to `c1ccc(-c2ccc(OCc3cn(-c4ccccc4)nn3)cc2)cc1`, the MIC in data set [3] was more than 25 µg/mL.
`NNC(=O)c1ccncc1` [ISONIAZID]: the CC50 at 24 h in data set [1] was determined as 100 µg/mL (≈ 729 µM). The Selectivity Index in data set [2] was found to be 4000. It took 0.025 µg/mL (≈ 0.182 µM) to inhibit growth in data set [3] (MIC).
Compound `c1ccc(Cn2cc(COc3ccc(-c4ccccc4)cc3)nn2)cc1` gave an MIC in data set [3] of more than 25 µg/mL.
In data set [3], `O=[N+]([O-])c1ccc(-n2cc(COc3ccc(-c4ccccc4)cc3)nn2)cc1` had an MIC of more than 25 µg/mL.
On to `Fc1ccccc1-n1cc(COc2ccc(-c3ccccc3)cc2)nn1`, for which the CC50 at 24 h in data set [1] is 100 µg/mL (≈ 290 µM). The Selectivity Index in data set [2] was determined as 128. The compound further had an MIC in data set [3] of 0.78 µg/mL (≈ 2.26 µM).
